# Read-outs that look alike come from different tables or passages of the source.
# What was measured:
# [1] = Organ distribution of regorafenib in rats with or without RT; format: in vivo, Sprague-Dawley rats; conditions: for concentration at 4 h: male, Sprague-Dawley, 16 mg/kg, 4 h after oral administration
# Description: According to the formula used to translate doses from animal to human, human equivalent dose (HED, mg/kg) = animal dose (mg/kg) × animal km/human km, we calculated the daily dose of regorafenib for rats to be 16 (mg/kg/day). The rats were randomly divided into ten groups with six rats in each group. The concurrent groups treated with regorafenib 1 h after RT, in the same day, to mimic regorafenib concurrent with RT in the daily practice. The sequential groups treated with regorafenib following RT (not in the same day), to mimic RT followed by regorafenib in the daily practice. The one fraction study group included (A) a sham group, regorafenib with RT0 Gy (regorafenib × 1 d); concurrent groups treated with regorafenib 1 h after (B) RT2 Gy with 1 fraction (RT2 Gy × 1 f’x) and (D) RT9 Gy with 1 fraction (RT9 Gy × 1 f’x); and sequential groups treated with regorafenib 24 h after (C) RT2 Gy × 1 f’x and (E) RT9 Gy × 1 f’x. Continued treatment mimicking clinical practice was applied to (A) a sham group, regorafenib (p.o. (per os), q.d. × 3 d) with RT0 Gy (regorafenib × 3 d); concurrent groups treated with regorafenib (p.o., q.d. × 3 d) 1 h after (B) RT2 Gy with 3 fractions (RT2 Gy × 3 f’x) and (D) RT9 Gy with 3 fractions (RT9Gy × 3 f’x); and sequential groups treated with regorafenib 24 h (p.o., q.d. × 3 d) after (C) RT2 Gy × 3 f’x and (E) RT9 Gy × 3 f’x. (Figure 1A,B).
# Organs, including the brain, liver, heart, spleen, lung and kidney, were collected, weighed and stored at −20 °C, until analysis.
# The organ samples were homogenized in 50% aqueous acetonitrile (sample weight: volume = 1:5) and centrifuged at 13,000× g, for 10 min, at 4 °C. The supernatant was stored at −20 °C, until analysis. Additionally, 150 μL of IS solution (diethylstilbestrol) was combined with each organ sample (50 μL) for protein precipitation. Finally, the filtrate (20 μL) was analyzed by HPLC.
# [2] = tested on: Hep G2 cells; test: Cell viability assay (MTT), Hep G2; format: cell-based; conditions: Homo sapiens; for IC50: MTT after 24 h, read-out: IC50 (estimated concentration at which 50% of cells were killed); for viability at 5 µM: HepG2, regorafenib 5 μM; for viability at 10 µM: HepG2, regorafenib 10 μM; for viability at 20 µM: HepG2, regorafenib 20 μM
# Description: Human hepatoma Huh-7 and Hep G2 cell lines kindly provided by Professor Hu (Taipei Veterans General Hospital, Taiwan) were plated into 96-well plates (1 × 10^3 per well) with serum-containing medium (100 μL) for 1 day. Regorafenib at concentrations of 0, 5, 10 and 20 μmol/L (μM) was added to the plates. Then, the study groups were designed: the concurrent group (1 h after irradiation) or sequential group (24 h after irradiation) with sham RT (RT0 Gy), 2 Gy (RT2 Gy) and 9 Gy (RT9 Gy). Additionally, after 24 h, 20 μL of 5 mg/mL MTT was added to the plates and incubated for 3 h. The supernatant was discarded, the precipitate was dissolved in 200 μL DMSO, and the plates were read with a microplate reader at 570 nm and a reference wavelength of 630 nm.
# [3] = tested on: CYP3A4; set-up: method as in PMID 21170960; conditions: cited from earlier work
compound,measurement,setting,value
"CNC(=O)c1cc(Oc2ccc(NC(=O)Nc3ccc(Cl)c(C(F)(F)F)c3)c(F)c2)ccn1 [regorafenib, Regorafenib]",concentration at 4 h,"[1]; rat, liver, oral, rat, RT9 Gy × 1 f'x followed by regorafenib 16 mg/kg × 1 d (sequential), read-out: Concentration in liver",2390 ± 1200 ng/g
same,concentration at 4 h,"[1]; rat, liver, oral, rat, RT9 Gy × 3 f'x followed by regorafenib 16 mg/kg × 3 d (sequential), read-out: Concentration in liver",1160 ± 1120 ng/g
same,concentration at 4 h,"[1]; rat, liver, oral, rat, RT9 Gy × 3 f'x with regorafenib 16 mg/kg × 3 d (concurrent), read-out: Concentration in liver",700 ± 290 ng/g
same,concentration at 4 h,"[1]; rat, liver, po, rat, 16 mg/kg p.o. × 1 d, no RT, read-out: Concentration in liver",1460 ± 340 ng/g
same,concentration at 4 h,"[1]; rat, liver, po, rat, 16 mg/kg p.o. × 3 d, no RT, read-out: Concentration in liver",1450 ± 740 ng/g
same,concentration at 4 h,"[1]; rat, lung, oral, rat, RT2 Gy × 1 f'x with regorafenib 16 mg/kg × 1 d (concurrent), read-out: Concentration in lung",290 ± 190 ng/g
same,concentration at 4 h,"[1]; rat, lung, oral, rat, RT9 Gy × 1 f'x followed by regorafenib 16 mg/kg × 1 d (sequential), read-out: Concentration in lung",1010 ± 700 ng/g
same,concentration at 4 h,"[1]; rat, lung, oral, rat, RT9 Gy × 3 f'x followed by regorafenib 16 mg/kg × 3 d (sequential), read-out: Concentration in lung",370 ± 230 ng/g
same,concentration at 4 h,"[1]; rat, lung, oral, rat, RT9 Gy × 3 f'x with regorafenib 16 mg/kg × 3 d (concurrent), read-out: Concentration in lung",250 ± 180 ng/g
same,concentration at 4 h,"[1]; rat, lung, po, rat, 16 mg/kg p.o. × 1 d, no RT, read-out: Concentration in lung",470 ± 180 ng/g
same,concentration at 4 h,"[1]; rat, lung, po, rat, 16 mg/kg p.o. × 3 d, no RT, read-out: Concentration in lung",1120 ± 250 ng/g
same,concentration at 4 h,"[1]; rat, spleen, oral, rat, RT2 Gy × 1 f'x with regorafenib 16 mg/kg × 1 d (concurrent), read-out: Concentration in spleen",190 ± 70 ng/g
same,concentration at 4 h,"[1]; rat, spleen, oral, rat, RT9 Gy × 1 f'x followed by regorafenib 16 mg/kg × 1 d (sequential), read-out: Concentration in spleen",680 ± 450 ng/g
same,concentration at 4 h,"[1]; rat, spleen, oral, rat, RT9 Gy × 3 f'x followed by regorafenib 16 mg/kg × 3 d (sequential), read-out: Concentration in spleen",230 ± 310 ng/g
same,concentration at 4 h,"[1]; rat, spleen, oral, rat, RT9 Gy × 3 f'x with regorafenib 16 mg/kg × 3 d (concurrent), read-out: Concentration in spleen",100 ± 80 ng/g
same,concentration at 4 h,"[1]; rat, spleen, po, rat, 16 mg/kg p.o. × 1 d, no RT, read-out: Concentration in spleen",260 ± 100 ng/g
same,concentration at 4 h,"[1]; rat, spleen, po, rat, 16 mg/kg p.o. × 3 d, no RT, read-out: Concentration in spleen",380 ± 220 ng/g
same,Concentrations of regorafenib in the brain (in words),"[1]; rat, all regimens",very limited
same,"Biodistribution in heart, liver, lung, spleen and kidneys (in words)",[1]; sequential RT2 Gy × 1 f'x and RT9 Gy × 1 f'x vs control (regorafenib × 1 d),increased the biodistribution of regorafenib
same,IC50,"[2]; HepG2, 24 h, Hep G2, RT0 Gy, S (regorafenib added 24 h following RT)",17.7 µM
same,IC50,"[2]; HepG2, 24 h, Hep G2, RT2 Gy, S (regorafenib added 24 h following RT)",18.9 µM
same,IC50,"[2]; HepG2, 24 h, Hep G2, RT9 Gy, S (regorafenib added 24 h following RT)",16.8 µM
same,IC50,"[2]; HepG2, Hep G2, RT0 Gy, C (regorafenib added 1 h following RT)",9.87 µM
same,IC50,"[2]; HepG2, Hep G2, RT2 Gy, C (regorafenib added 1 h following RT)",10.5 µM
same,IC50,"[2]; HepG2, Hep G2, RT9 Gy, C (regorafenib added 1 h following RT)",8.43 µM
same,viability at 5 µM,"[2]; Hep G2, RT0 Gy, C",74.6 ± 2.4%
same,viability at 5 µM,"[2]; Hep G2, RT0 Gy, S",82 ± 1.9%
same,viability at 5 µM,"[2]; Hep G2, RT2 Gy, C",73.1 ± 11.7%
same,viability at 5 µM,"[2]; Hep G2, RT2 Gy, S",72.1 ± 1.7%
same,viability at 5 µM,"[2]; Hep G2, RT9 Gy, C",64.7 ± 11.3%
same,viability at 5 µM,"[2]; Hep G2, RT9 Gy, S",71 ± 5.3%
same,viability at 10 µM,"[2]; Hep G2, RT0 Gy, C",51.3 ± 3.1%
same,viability at 10 µM,"[2]; Hep G2, RT0 Gy, S",67 ± 1.3%
same,viability at 10 µM,"[2]; Hep G2, RT2 Gy, C",50.8 ± 7%
same,viability at 10 µM,"[2]; Hep G2, RT2 Gy, S",64.1 ± 1.3%
same,viability at 10 µM,"[2]; Hep G2, RT9 Gy, C",46.7 ± 8.9%
same,viability at 10 µM,"[2]; Hep G2, RT9 Gy, S",64.2 ± 4.3%
same,viability at 20 µM,"[2]; Hep G2, RT0 Gy, C",24.7 ± 1.2%
same,viability at 20 µM,"[2]; Hep G2, RT0 Gy, S",46 ± 3.4%
same,viability at 20 µM,"[2]; Hep G2, RT2 Gy, C",24.5 ± 2.5%
same,viability at 20 µM,"[2]; Hep G2, RT2 Gy, S",42.4 ± 0.8%
same,viability at 20 µM,"[2]; Hep G2, RT9 Gy, C",20.6 ± 1.5%
same,viability at 20 µM,"[2]; Hep G2, RT9 Gy, S",38.5 ± 1.9%
same,Metabolic pathway (in words),[3],metabolized via CYP3A4

# Reference: article PMC8035703, “Effect of Synchronous Versus Sequential Regimens on the Pharmacokinetics and Biodistribution of Regorafenib with Irradiation” (Pharmaceutics, 2021)
